# From patent US20160235807A1, “AGONISTS OF GUANYLATE CYCLASE USEFUL FOR DOWNREGULATION OF PRO-INFLAMMATORY CYTOKINES” (SYNERGY PHARMACEUTICALS, INC., priority 2013, published 2016)
# Entries after “also recorded” stand apart in the source; their conditions may differ. Bridge positions count the residues as written; N and C are the ends. Peptide text beside a SMILES is read from it.
# Legend:
# TNBS-induced colitis [1] = experiment: TNBS-induced colitis in BDF-1 mice; type: in vivo, mouse
# Description: Mouse strains BDF1 and BALB/c were used to examine the efficacy of plecanatide in TNBS induced colitis. The procedures used were as previously described (Hegazi et al., 2005; Dave et al., 2009). Briefly, to induce colitis in specific pathogen-free 2-4 months old female BALB/c mice, 0.5 mg of TNBS in 50% ethanol was slowly administered into the lumen of the colon via a 3.5 F catheter fitted onto a 1-ml syringe (total injection volume 100 μl). Plecanatide formulated in PBS was administered by oral gavage for a total of 7 days, with the first dose given one day prior to TNBS challenge. Mice were observed daily for body weight, food consumption and for signs of any apparent toxicity, rectal bleeding or prolapse. After 7 days of treatment, GI tissue collection, fixation and histopathological scoring were performed essentially as described previously (Sheikh et al., 2011). GI tissues were also collected and immediately processed for explant culture and cytokine expression as described below.
# To induce colitis in BDF1 mice, a total of 90, 10-12 week old, H. pylori free male mice were used. Animals were randomized into 9 groups. TNBS was rectally administered as described above in a total injection volume of 100 μl. Oral administration of PBS formulated plecanatide (0.0005-50 mg/kg), animal monitoring and collection of GI tissues was performed as described above. Daily administration of plecanatide was continued through day 6, when the mice were euthanized. […] Distal sections were fixed, stained with H&E, and evaluated for histopathology and visual severity scores (Hegazi et al., 2005; Dave et al., 2009). […]
# (§1) Disease activity index (DAI) was calculated by scoring in-life parameters starting from day −1 until the end of the study. Once daily, all mice were weighed and assessed for stool consistency, and the presence of overt blood in the stool or around the anus essentially similar to that reported earlier. Colitis severity was assessed by histopathological analyses of H&E stained tissue sections (Hegazi et al., 2005; Dave et al., 2009) employing the following criteria: (score 0) normal appearing crypts; (score 1) abnormal crypt pathology without ulceration; (score 2) depleted crypts with ulceration; (score 3) 20-50% depleted crypts and increased ulceration; (score 4) >50% depleted crypts with substantial ulceration and (score 5) totally ulcerated/inflamed colon with no crypts remaining. All slides were scored in a blinded manner. Colitis severity in TCRα−/− model was scored as previously described^25. All slides were scored in a blinded manner. Disease activity index (DAI) was calculated by assessing body weight, stool consistency, and the presence of overt blood in stools or around the anus, essentially similar to that reported earlier (Hamamoto et al., 1999).
# GC-C Receptor = target: T1, GC-C Receptor (Homo sapiens, UniProt P25092); experiment: Cyclic GMP stimulation assay in T84 cells; type: cell-based
# T1 construct: endogenous in cells; host or cells: T84 human colon carcinoma cells
# T1 sequence (P25092 24-1073): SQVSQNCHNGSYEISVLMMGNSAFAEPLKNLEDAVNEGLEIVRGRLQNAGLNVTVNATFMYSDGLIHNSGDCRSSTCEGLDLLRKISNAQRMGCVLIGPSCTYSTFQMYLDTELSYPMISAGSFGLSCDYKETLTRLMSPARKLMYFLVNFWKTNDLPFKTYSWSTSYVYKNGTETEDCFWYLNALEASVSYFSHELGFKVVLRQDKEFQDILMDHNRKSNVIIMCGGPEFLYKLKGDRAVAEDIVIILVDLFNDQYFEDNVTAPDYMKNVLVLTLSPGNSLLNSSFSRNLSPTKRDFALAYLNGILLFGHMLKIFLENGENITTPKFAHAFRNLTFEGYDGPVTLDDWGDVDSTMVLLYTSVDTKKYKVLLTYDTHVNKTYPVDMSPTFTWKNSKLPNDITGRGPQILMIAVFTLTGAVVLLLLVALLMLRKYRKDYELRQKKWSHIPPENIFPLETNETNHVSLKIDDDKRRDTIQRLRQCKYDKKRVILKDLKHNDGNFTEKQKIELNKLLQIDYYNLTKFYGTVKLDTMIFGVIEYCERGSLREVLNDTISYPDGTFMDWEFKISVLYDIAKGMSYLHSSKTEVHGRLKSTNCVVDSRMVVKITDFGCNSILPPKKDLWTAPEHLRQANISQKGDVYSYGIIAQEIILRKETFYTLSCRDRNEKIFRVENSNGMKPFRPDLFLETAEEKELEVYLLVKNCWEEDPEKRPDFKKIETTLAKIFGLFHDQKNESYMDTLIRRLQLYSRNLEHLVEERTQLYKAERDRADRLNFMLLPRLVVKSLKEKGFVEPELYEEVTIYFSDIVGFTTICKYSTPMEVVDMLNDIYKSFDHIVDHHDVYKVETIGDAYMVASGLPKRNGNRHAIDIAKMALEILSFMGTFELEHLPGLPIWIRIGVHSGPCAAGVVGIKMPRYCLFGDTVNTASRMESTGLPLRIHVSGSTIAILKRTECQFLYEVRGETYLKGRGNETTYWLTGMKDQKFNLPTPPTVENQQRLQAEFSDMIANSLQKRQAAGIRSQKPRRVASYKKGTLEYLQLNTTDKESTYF
# Description: (§2) The potency of test peptides to stimulate cGMP synthesis in T84 cells was assayed by a published procedure (Shailubhai et al. 2000). Briefly, confluent monolayers of T-84 cells in 24-well plates were washed twice with 250 μl of DMEM containing 50 mM HEPES (pH 7.4), pre-incubated at 37° C. for 10 min with 250 μl of DMEM containing 50 mM HEPES (pH 7.4) and 1 mM isobutylmethylxanthine (IBMX), followed by incubation with test peptide for 30 min. The medium was aspirated, and the reaction was terminated by the addition of 3% perchloric acid. Following centrifugation, and neutralization with 0.1 N NaOH, the resulting supernatant was used directly for measurements of intracellular cGMP using an ELISA kit (Caymen Chemical, Ann Arbor, Mich.). Results are expressed as pmol of cGMP/mg of protein in the cell extracts.
# colonic explants [2] = experiment: Explant cultures of colon tissue from TNBS-induced colitis BALB/c mice, cytokine ELISA; type: in vivo, mouse; settings: 24 h, vs vehicle-treated explants
# Description: (§3) Colonic tissue fragments (0.5 g dry weight) from the TNBS-induced colitis mice and TCRα^−/− knockout mice were processed as previously described (Hegazi et al., 2005). Tissue fragment supernatants were collected after 24 h for cytokine ELISAs. Murine immunoassay kits (R&D System) were used according to the manufacturer's instructions for IL-12p40, IL-23 and TNF. Linco Cytokine-16 plex Mouse ELISA was performed for MIP-1α, RANTES, IL-10 and IL-17 (Millipore) as per manufacturer's instructions.
# (§4) Murine IL-12 p40, IL-1β, TNF, IFN-γ, immunoassay kits (R&D System, MN, USA) were used according to the manufacturer's instructions. Linco Cytokine-16 plex Mouse ELISA was performed for MIP-1α, RANTES, IL-10, TNF and IL-17 (Millipore, Billerica, Mass.) as per manufacturer's instructions.
# colitis in TCRα −/− mice = experiment: Spontaneous colitis in TCRα−/− mice; type: in vivo, mouse; settings: plecanatide 0.5 and 2.5 mg/kg oral daily for 14 days; vs vehicle
# Description: TCRα^−/− mice were matched for age and sex in all experiments. 16 week old TCRα−/− mice were treated with plecanatide at 0.5 or 2.5 mg/kg/day or PBS vehicle control by oral gavage for 14 days (6 mice per group). Mice were sacrificed 12 h after the final dose, and GI tissues were collected for experimental analyses. Colitis severity in TCRα^−/− model was scored as described (Berg et al., 1996).
# as §1, with “Disease activity index (DAI) was calculated by assessing body weight, stool consistency, and the presence of overt blood in stools or around the anus, essentially similar to that reported earlier (Hamamoto et al., 1999).” left out
# [3] = type: in vitro ADME
# Description: as §2
# (§5) Plecanatide and SP-333 were incubated in simulated intestinal fluid (SIF) for 6-24 h. Inactivated SIF was used as a control. Following the treatment, samples were analyzed by HPLC by cGMP production in T84 cells. […] The active metabolite, SP-338 was characterized by MS and MS/MS and identified to be formed via removal of carboxyl terminal leucine possibly due to cleavage by carboxypeptidases.
# DSS-induced colitis = DSS-induced colitis in BDF-1 mice; type: in vivo, mouse
# Description: To evaluate the efficacy of plecanatide in DSS induced colitis model, 48 BDF-1 mice were divided into 8 treatment groups (6 mice/group). One group was not exposed to DSS (untreated control) and groups 2-8 were treated with 5% DSS in the drinking water on day 0. Plecanatide or SP-333 solutions formulated in 0.1M phosphate buffer (pH 7) was administered by oral gavage, once a day at 0.005, 0.05, 0.5, 2.5 and 5 mg/kg, from study day −1 (i.e. prior to initiation of DSS treatment) through day 6 for SP-333 or day 7 for plecanatide. DSS treatment was initiated on day 0 for groups 2-8 until the end of the study. Sulfasalazine (80 mg/kg) or 5-ASA (100 mg/kg) was used as positive control and was administered daily. Mice were sacrificed on day 7. The large intestine was removed and weighed. Distal section of the large intestine was collected and fixed as described above.
# as §1
# colonic explants [4] = experiment: Explant cultures of colon tissue from TCRα−/− mice, cytokine and chemokine ELISA; type: in vivo, mouse; settings: explant culture 24 h, plecanatide treated mice
# Description: as §3, §4
# TNBS-induced colitis [5] = experiment: TNBS-induced colitis in BALB/c mice; type: in vivo, mouse; settings: plecanatide 0.5 and 2.5 mg/kg oral once daily 7 days; p<0.05; preliminary study
# Description: Mouse strains BDF1 and BALB/c were used to examine the efficacy of plecanatide in TNBS induced colitis. The procedures used were as previously described (Hegazi et al., 2005; Dave et al., 2009). Briefly, to induce colitis in specific pathogen-free 2-4 months old female BALB/c mice, 0.5 mg of TNBS in 50% ethanol was slowly administered into the lumen of the colon via a 3.5 F catheter fitted onto a 1-ml syringe (total injection volume 100 μl). Plecanatide formulated in PBS was administered by oral gavage for a total of 7 days, with the first dose given one day prior to TNBS challenge. […]
# as §1, with “All slides were scored in a blinded manner. Colitis severity in TCRα−/− model was scored as previously described^25. All slides were scored in a blinded manner. Disease activity index (DAI) was calculated by assessing body weight, stool consistency, and the presence of overt blood in stools or around the anus, essentially similar to that reported earlier (Hamamoto et al., 1999).” left out
# [6] = type: in vitro ADME; remark: listed apart in the source
# Description: as §5
# colon dysplasia = settings: oral plecanatide; Chang et al., 2014; Shailubhai et al., 2012; cited from earlier work
smiles,measurement,setting,value
"CC(C)C[C@H](NC(=O)[C@@H]1CSSC[C@@H]2NC(=O)[C@H](CC(C)C)NC(=O)[C@H](CCC(=O)O)NC(=O)[C@@H](NC(=O)[C@H](CCC(=O)O)NC(=O)[C@H](CC(=O)O)NC(=O)[C@@H](N)CC(N)=O)CSSC[C@H](NC(=O)[C@H](C)NC(=O)[C@H](C(C)C)NC(=O)[C@H](CC(N)=O)NC(=O)[C@H](C(C)C)NC2=O)C(=O)N[C@@H]([C@@H](C)O)C(=O)NCC(=O)N1)C(=O)O [plecanatide, Asn^1-Asp^2-Glu^3-Cys^4-Glu^5-Leu^6-Cys^7-Val^8-Asn^9-Val^10-Ala^11-Cys^12-Thr^13-Gly^14-Cys^15-Leu^16] (H-NDECELCVNVACTGCL-OH; disulfide 4-12, 7-15 (inferred))",colitis severity,"TNBS-induced colitis [1]; plecanatide 0.05 mg/kg and higher doses oral, vs untreated controls",significantly lower; also recorded: statistically significant reduction
same,colitis severity,TNBS-induced colitis [1]; plecanatide doses under 0.005 mg/kg oral,ineffective
same,effective dose-range,"TNBS-induced colitis [1]; plecanatide oral, TNBS model",0.05 to 0.5 mg/kg
same,colitis severity compared with reference compound sulfasalazine (80 mg/kg),"TNBS-induced colitis [1]; plecanatide, TNBS model",superior to treatment with reference compound
same,potency to stimulate cGMP in T84 cells,GC-C Receptor,dose dependent increase in cGMP; also recorded: comparable to that of SP-333
same,suppression of secretion of IL-12p40,colonic explants [2],37%
same,suppression of secretion of IL-23,colonic explants [2],84%
same,suppression of secretion of TNF,colonic explants [2],67%
same,colitis scores,colitis in TCRα −/− mice,reduced
same,activity retained,[3],~70%
same,biological activity lost,[3],~35%
same,DSS induced colitis severity score,"DSS-induced colitis; plecanatide 0.005 mg/kg oral gavage once a day, vs untreated controls p=0.02",significantly lower; also recorded: as effective as sulfasalazine (80 mg/kg)
same,amelioration of DSS-induced colitis at higher doses,DSS-induced colitis; plecanatide doses higher than 0.005 mg/day (so in the source),did not produce incremental effect
same,colitis severity compared with reference compound sulfasalazine (80 mg/kg),"DSS-induced colitis; plecanatide, DSS model",superior to treatment with reference compound
same,levels of secreted IL-10,colonic explants [4],increased
same,production of IL-17,colonic explants [4],considerably suppressed
same,production of MIP-1α,colonic explants [4],considerably suppressed
same,production of RANTES,colonic explants [4],considerably suppressed
same,colitis scores,TNBS-induced colitis [5],significantly lower; also recorded: effectively ameliorated
same,HPLC analysis after digestion with SIF,[6],completely converts plecanatide into a shorter peptide
same,"time over which intact peptide was stable, HPLC",[6],up to 6 h
same,colon dysplasia,colon dysplasia,considerably reduced
